In patent publication US20230019491A1, “PYRIMIDINE TBK/IKKe INHIBITOR COMPOUNDS AND USES THEREOF” (Merck Patent GmbH, priority 2017, published 2023):

Key:
TBK1 = target: T1, TBK1 (Homo sapiens, UniProt Q9UHD2); assay: TBK biochemical assay; conditions: 10 point 1:4 dose response, 30 uM top concentration, 90 min at 25° C., LabChip EZ Reader II; read-out: TBK1_IC50
T1 sequence (Q9UHD2 1-729): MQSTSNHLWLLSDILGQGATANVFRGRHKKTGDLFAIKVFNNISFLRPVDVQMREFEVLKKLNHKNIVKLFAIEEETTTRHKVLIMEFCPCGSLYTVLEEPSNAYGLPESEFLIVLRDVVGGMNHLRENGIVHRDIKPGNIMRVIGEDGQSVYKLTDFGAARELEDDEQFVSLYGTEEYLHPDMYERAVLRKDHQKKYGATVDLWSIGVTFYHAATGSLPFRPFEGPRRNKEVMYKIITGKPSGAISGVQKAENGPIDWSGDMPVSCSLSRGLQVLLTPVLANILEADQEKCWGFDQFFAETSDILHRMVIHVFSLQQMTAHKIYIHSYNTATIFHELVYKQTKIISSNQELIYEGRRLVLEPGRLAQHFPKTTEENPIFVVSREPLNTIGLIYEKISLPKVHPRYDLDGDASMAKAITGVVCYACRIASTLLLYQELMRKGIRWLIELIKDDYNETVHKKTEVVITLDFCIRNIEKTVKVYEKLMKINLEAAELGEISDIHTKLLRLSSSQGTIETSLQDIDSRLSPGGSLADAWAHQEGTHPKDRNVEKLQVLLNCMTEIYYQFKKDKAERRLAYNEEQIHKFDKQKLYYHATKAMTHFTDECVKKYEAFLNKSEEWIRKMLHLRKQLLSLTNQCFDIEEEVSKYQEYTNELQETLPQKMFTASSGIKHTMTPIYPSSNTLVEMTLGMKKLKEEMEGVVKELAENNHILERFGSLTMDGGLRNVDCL
Method in brief: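 Read-out was a Caliper LabChip mobility-shift assay, run after a 90-min, 25 °C reaction of TBK1 with substrate and compounds, quenched with stop buffer. Control wells received staurosporine at 10 uM final.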

IKKε = target: T2, IKKε (Homo sapiens, UniProt Q14164); assay: IKKε biochemical assay; conditions: 10 point 1:4 dose response, 30 uM top concentration, 90 min at 25° C., LabChip EZ Reader II; read-out: IKKε_IC50
T2 sequence (Q14164 1-716): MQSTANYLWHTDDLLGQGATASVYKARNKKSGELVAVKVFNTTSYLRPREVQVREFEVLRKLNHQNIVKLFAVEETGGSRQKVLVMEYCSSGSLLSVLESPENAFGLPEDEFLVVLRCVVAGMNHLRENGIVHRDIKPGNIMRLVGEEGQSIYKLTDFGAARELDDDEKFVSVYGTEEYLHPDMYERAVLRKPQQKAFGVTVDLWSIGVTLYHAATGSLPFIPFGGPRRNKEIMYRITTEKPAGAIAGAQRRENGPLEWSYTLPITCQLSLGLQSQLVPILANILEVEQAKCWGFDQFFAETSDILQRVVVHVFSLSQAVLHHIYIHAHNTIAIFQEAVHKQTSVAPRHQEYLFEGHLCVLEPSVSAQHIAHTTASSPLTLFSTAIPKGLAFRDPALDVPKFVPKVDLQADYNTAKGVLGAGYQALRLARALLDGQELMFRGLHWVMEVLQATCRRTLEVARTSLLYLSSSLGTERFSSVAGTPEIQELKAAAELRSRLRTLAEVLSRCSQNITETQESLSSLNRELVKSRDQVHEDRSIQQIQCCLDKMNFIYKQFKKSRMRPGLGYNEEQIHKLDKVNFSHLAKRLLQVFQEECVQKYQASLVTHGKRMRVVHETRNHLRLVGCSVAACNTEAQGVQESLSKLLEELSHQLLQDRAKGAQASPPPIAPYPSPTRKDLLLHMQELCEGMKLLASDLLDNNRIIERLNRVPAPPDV
Method in brief: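 Mobility-shift LabChip read-out followed a 90 min, 25° C. reaction of IKKε with substrate and test compound, with DMSO held at 1% final. Reactions were ended with stop buffer. Wells with 10 uM final staurosporine defined complete inhibition, and DMSO-only wells the uninhibited level.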

Compound	IC50 (TBK1) [nM]	IC50 (IKKε) [nM]
COc1cc(Nc2nccc(-c3ccc(OC4CCN(C(=O)[C@H](C)O)CC4(F)F)c(C#N)c3)n2)ccc1N1CCN(C2COC2)CC1 (stereo partly drawn) [Example 217, 2-([3,3-difluoro-1-[(2S)-2-hydroxypropanoyl]piperidin-4-yl]oxy)-5-[2-([3-methoxy-4-[4-(oxetan-3-yl)piperazin-1-yl]phenyl]amino)pyrimidin-4-yl]benzonitrile]	< 100	< 100
COc1cccc(Nc2nccc(-c3ccc(OC4CCN(C(=O)c5n[nH]c(C)n5)CC4)c(C#N)c3)n2)n1 [Example 218, 5-[2-[(6-methoxypyridin-2-yl)amino]pyrimidin-4-yl]-2-[[1-(5-methyl-1H-1,2,4-triazole-3-carbonyl)piperidin-4-yl]oxy]benzonitrile]	< 100	< 100
C[C@H](O)C(=O)N1CCC(Oc2ccc(-c3ccnc(Nc4ccccn4)n3)cc2C#N)C(F)(F)C1 (stereo partly drawn) [Example 219, 2-(3,3-difluoro-1-((S)-2-hydroxypropanoyl)piperidin-4-yloxy)-5-(2-(pyridin-2-ylamino)pyrimidin-4-yl)benzonitrile]	< 100	< 100
N#Cc1cc(-c2ccnc(Nc3ccccn3)n2)ccc1OC1CCN(C(=O)CO)CC1(F)F (centres unmarked) [Example 220, 2-[3,3-Difluoro-1-(2-hydroxy-acetyl)-piperidin-4-yloxy]-5-[2-(pyridin-2-ylamino)-pyrimidin-4-yl]-benzonitrile]	< 100	< 100
C[C@@H](O)C(=O)N1CCC(Oc2ccc(-c3ccnc(Nc4ccccn4)n3)cc2C#N)C(F)(F)C1 (stereo partly drawn) [Example 221, 2-[3,3-Difluoro-1-((R)-2-hydroxy-propionyl)-piperidin-4-yloxy]-5-[2-(pyridin-2-ylamino)-pyrimidin-4-yl]-benzonitrile]	100 to 1000	100 to 1000
N#Cc1cc(-c2ccnc(Nc3cccc(C4CCN(C5COC5)CC4)c3)n2)ccc1OC1CCNCC1(F)F (centres unmarked) [Example 222, 2-(3,3-Difluoro-piperidin-4-yloxy)-5-{2-[3-(1-oxetan-3-yl-piperidin-4-yl)-phenylamino]-pyrimidin-4-yl}-benzonitrile]	< 100	< 100
N#Cc1cc(-c2ccnc(Nc3cccc(C4CCN(C5COC5)CC4)c3)n2)ccc1OC1CCN(C(=O)CO)CC1(F)F (centres unmarked) [Example 223, 2-[3,3-Difluoro-1-(2-hydroxy-acetyl)-piperidin-4-yloxy]-5-{2-[3-(1-oxetan-3-yl-piperidin-4-yl)-phenylamino]-pyrimidin-4-yl}-benzonitrile]	< 100	< 100
C[C@H](O)C(=O)N1CCC(Oc2ccc(-c3ccnc(Nc4cccc(C5CCN(C6COC6)CC5)c4)n3)cc2C#N)C(F)(F)C1 (stereo partly drawn) [Example 224, 2-[3,3-Difluoro-1-((S)-2-hydroxy-propionyl)-piperidin-4-yloxy]-5-{2-[3-(1-oxetan-3-yl-piperidin-4-yl)-phenylamino]-pyrimidin-4-yl}-benzonitrile]	< 100	< 100
C[C@@H](O)C(=O)N1CCC(Oc2ccc(-c3ccnc(Nc4cccc(C5CCN(C6COC6)CC5)c4)n3)cc2C#N)C(F)(F)C1 (stereo partly drawn) [Example 225, 2-[3,3-Difluoro-1-((R)-2-hydroxy-propionyl)-piperidin-4-yloxy]-5-{2-[3-(1-oxetan-3-yl-piperidin-4-yl)-phenylamino]-pyrimidin-4-yl}-benzonitrile]	< 100	< 100
C[C@@H](O)C(=O)N1CCC(Oc2ccc(-c3ccnc(Nc4ccc(C5CCN(C6COC6)CC5)cc4)n3)cc2C#N)C(F)(F)C1 (stereo partly drawn) [Example 226, 2-([33-difluoro-1-[(2R)-2-hydroxypropanoyl]piperidin-4-yl]oxy)-5-[2-([4-[1-(oxetan-3-yl)piperidin-4-yl]phenyl]amino)pyrimidin-4-yl]benzonitrile]	< 100	< 100
COc1cc(Nc2nccc(-c3ccc(OC4CCN(C(=O)[C@@H](C)O)CC4(F)F)c(C#N)c3)n2)ccc1C1CCN(C2COC2)CC1 (stereo partly drawn) [Example 227, 2-([3,3-difluoro-1-[(2R)-2-hydroxypropanoyl]piperidin-4-yl]oxy)-5-[2-([3-methoxy-4-[1-(oxetan-3-yl)piperidin-4-yl]phenyl]amino)pyrimidin-4-yl]benzonitrile]	< 100	< 100
COc1cc(N2CCN(C3COC3)CC2)ccc1Nc1nccc(-c2ccc(OC3CCN(C(=O)[C@H](C)O)CC3(F)F)c(C#N)c2)n1 (stereo partly drawn) [Example 228, 2-([33-difluoro-1-[(2S)-2-hydroxypropanoyl]piperidin-4-yl]oxy)-5-[2-([2-methoxy-4-[4-(oxetan-3-yl)piperazin-1-yl]phenyl]amino)pyrimidin-4-yl]benzonitrile]	< 100	< 100
CCOc1cc(Nc2nccc(-c3ccc(OC4CCN(C(=O)[C@H](C)O)CC4(F)F)c(C#N)c3)n2)ccc1N1CCN(C2COC2)CC1 (stereo partly drawn) [Example 229, 2-([3,3-difluoro-1-[(2S)-2-hydroxypropanoyl]piperidin-4-yl]oxy)-5-[2-([3-ethoxy-4-[4-(oxetan-3-yl)piperazin-1-yl]phenyl]amino)pyrimidin-4-yl]benzonitrile]	< 100	< 100
COc1cc(Nc2nccc(-c3ccc(O[C@H]4CCN(C(=O)[C@@H](C)O)CC4(F)F)c(C#N)c3)n2)ccn1 [Example 230, 2-((S)-3,3-difluoro-1-((R)-2-hydroxypropanoyl)piperidin-4-yloxy)-5-(2-(2-methoxypyridin-4-ylamino)pyrimidin-4-yl)benzonitrile]	100 to 1000	< 100
COc1cc(Nc2nccc(-c3ccc(O[C@@H]4CCN(C(=O)[C@@H](C)O)CC4(F)F)c(C#N)c3)n2)ccn1 [Example 231, 2-((R)-3,3-difluoro-1-((R)-2-hydroxypropanoyl)piperidin-4-yloxy)-5-(2-(2-methoxypyridin-4-ylamino)pyrimidin-4-yl)benzonitrile]	< 100	< 100
COc1nccc(Nc2nccc(-c3ccc(OC4CCNCC4(F)F)c(C#N)c3)n2)n1 (centres unmarked) [Example 232, 2-(3,3-Difluoro-piperidin-4-yloxy)-5-[2-(2-methoxy-pyrimidin-4-ylamino)-pyrimidin-4-yl]-benzonitrile]	100 to 1000	100 to 1000
COc1nccc(Nc2nccc(-c3ccc(OC4CCN(C(=O)[C@H](C)O)CC4(F)F)c(C#N)c3)n2)n1 (some centres unmarked) [Example 233]	< 100	< 100
COc1nc(Nc2nccc(-c3ccc(OC4CCN(C(=O)CO)CC4(F)F)c(C#N)c3)n2)ccc1C1CCN(C)CC1 (stereo not drawn) [Example 234, 2-[[3,3-difluoro-1-(2-hydroxyacetyl)piperidin-4-yl]oxy]-5-(2-[[6-methoxy-5-(l-methylpiperidin-4-yl)pyridin-2-yl]amino]pyrimidin-4-yl)benzonitrile]	< 100	< 100
COc1nc(Nc2nccc(-c3ccc(O[C@@H]4CCNC[C@@H]4F)c(C#N)c3)n2)ccc1C1CCN(C2COC2)CC1 [Example 235, 2-((3S,4R)-3-Fluoro-piperidin-4-yloxy)-5-[2-(2-methoxy-1′-oxetan-3-yl-1′,2′,3′,4′,5′,6′-hexahydro-[3,4′]bipyridinyl-6-ylamino)-pyrimidin-4-yl]-benzonitrile]	100 to 1000	100 to 1000
